Here are results for 6 molecules from publication doi:10.1101/2024.02.23.581731v1 (biorxiv, 2024).

SMILES strings stand for the structures. Numbering of substitutions follows the chain as printed.

As a reminder, the Kd is the concentration at which binding is half-saturated. As usually defined, the Ki is a measure of affinity in units of concentration, obtained from inhibition or displacement. What is called IC50 is the midpoint of a concentration-inhibition curve. Higher therefore signals weaker potency in that assay.

Test [1] has as its target T1, h5-HT3AR (Homo sapiens, UniProt P46098).
T1 sequence (P46098 24-478): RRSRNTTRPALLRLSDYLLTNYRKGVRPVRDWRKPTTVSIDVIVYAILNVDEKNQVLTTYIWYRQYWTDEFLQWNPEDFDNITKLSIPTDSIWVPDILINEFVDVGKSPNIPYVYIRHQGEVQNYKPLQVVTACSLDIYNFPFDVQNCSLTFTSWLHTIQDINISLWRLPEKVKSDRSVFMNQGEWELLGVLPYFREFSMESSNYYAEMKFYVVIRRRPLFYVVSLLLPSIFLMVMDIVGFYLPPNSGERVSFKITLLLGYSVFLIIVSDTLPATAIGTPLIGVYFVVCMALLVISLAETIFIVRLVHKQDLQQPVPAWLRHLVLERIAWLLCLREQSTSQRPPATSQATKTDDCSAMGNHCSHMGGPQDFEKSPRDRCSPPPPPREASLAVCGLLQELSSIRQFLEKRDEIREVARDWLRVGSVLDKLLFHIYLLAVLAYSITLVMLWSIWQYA
The test is described as follows: FLIPR Blue membrane potential assay, activation. It is filed as cell-based. Conditions: relative to 1 µM VTX.

For test [2], the target named is T2, h5-HT3AR (Homo sapiens, UniProt P46098, V202I).
T2 sequence (P46098 24-478 V202I): T1 sequence (P46098 24-478) with V179I
The test is described as follows: biochemical.

The target of test [3] is T1, h5-HT3AR. The test is described as follows: biochemical.
For test [4], the target named is T1, h5-HT3AR. Nature of the test: [3H]-GR65630 displacement, HEK-293 membranes. It is filed as binding.
For test [5], the target named is T3, gp5-HT3AR (Cavia porcellus, UniProt O70212).
T3 sequence (O70212 20-490): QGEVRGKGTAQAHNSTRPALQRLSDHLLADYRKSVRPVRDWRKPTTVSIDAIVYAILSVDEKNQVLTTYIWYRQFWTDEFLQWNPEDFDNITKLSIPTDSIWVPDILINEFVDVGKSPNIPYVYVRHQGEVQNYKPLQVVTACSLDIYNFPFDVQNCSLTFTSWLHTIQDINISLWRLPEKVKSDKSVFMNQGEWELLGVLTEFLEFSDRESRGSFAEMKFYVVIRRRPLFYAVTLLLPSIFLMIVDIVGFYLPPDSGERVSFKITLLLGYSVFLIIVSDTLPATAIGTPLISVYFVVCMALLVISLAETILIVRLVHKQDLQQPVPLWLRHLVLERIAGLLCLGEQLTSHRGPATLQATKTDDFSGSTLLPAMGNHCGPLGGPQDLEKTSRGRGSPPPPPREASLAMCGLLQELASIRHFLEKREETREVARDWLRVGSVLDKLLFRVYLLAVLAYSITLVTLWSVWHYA
Nature of the test: FLIPR Blue membrane potential assay, inhibition of 5-HT response. It is filed as cell-based.

With `COc1ccc(Sc2ccccc2N2CCNCC2)c(Cl)c1` [5n], in test [1], the “Activity (%) at 1 μM” value is 111 ± 14%.

On to `Cc1[nH]cnc1CCC(=O)c1cn(C)c2ccccc12` [[3H]-GR65630], for which the Kd in test [2] was determined as 0.62 ± 0.05 nM; in test [3] it was 0.82 ± 0.06 nM.

On to `Cc1ccc(Sc2ccccc2N2CCNCC2)cc1` [4j], for which the “Activity (%) at 1 μM” value in test [1] came to 95 ± 12%.

In turn, `Cc1ccc(Sc2ccc(C)cc2N2CCNCC2)c(C)c1` [6b] registered a Ki in test [4] of 880 nM. In other words, the sub-micromolar range.

In turn, `CN1C2CCCC1CC(NC(=O)c1nn(C)c3ccccc13)C2` (stereo not shown) [granisetron] displayed an IC50 in test [5] of 1.26 µM.

Take `Cc1nccn1CC1CCc2c(c3ccccc3n2C)C1=O` (stereo not shown) [ondansetron]: the midpoint of inhibition in test [5], the IC50, lay at 9.81 µM. This IC50 lies about 7.8-fold higher than the previous one.
